Values joined by “and” are separate entries in the source; they are usually repeats but may differ in a detail not shown here. Equal entries are not always repeated. Where two headings read alike, the source gives them in different places.
Legend:
VEEV (TC83 strain) = assay: microbe, parasite or virus in culture; format: cell-based, Venezuelan equine encephalitis virus
CHIKV (S27 strain) = CHIKV (S27 strain) CPE assay; format: cell-based, Chikungunya virus
in vitro = details: African green monkey
LCMV-ARM = format: cell-based, Lymphocytic Choriomeningitis Virus
Influenza virus A (H1N1) = format: cell-based
[1] = tested on: VEEV TrD (Trinidad donkey); format: cell-based, Venezuelan equine encephalitis virus
CHIKV S27 = format: cell-based, Chikungunya virus; details: 5 μM
YFV 17D = format: cell-based, Yellow Fever virus
[2] = tested on: host gene expression in HEp-2 cells; assay: DNA microarray host gene expression; format: cell-based, Human; details: 5 μM, 18 hours
pVSV-luc = assay: microbe, parasite or virus in culture; format: cell-based, Vesicular stomatitis virus
VEEV V3526-luc = assay: microbe, parasite or virus in culture; format: cell-based, Venezuelan equine encephalitis virus; details: Venezuelan equine encephalitis virus
[3] = Venezuelan equine encephalitis virus, read-out: VEEV EC50
[4] = Chikungunya virus, read-out: CHIKV EC50
[5] = read-out: VEEV (TC83 strain) CPE Assay Potency mean EC50
[6] = Tables 7-10, read-out: CHIKV (S27 strain) CPE Assay Potency mean EC50

| SMILES | EC50 (VEEV (TC83 strain); [5]) [µM] | EC50 (CHIKV (S27 strain); [6]) [µM] | CC50 (Vero 76 cells) [µM] | also measured |
| --- | --- | --- | --- | --- |
| CCOc1ccccc1C1CCN(c2nc3c(s2)CCCC3)C1=O (stereo not drawn) |  |  |  | EC50 (VEEV (TC83 strain); [3]): 4.5 µM; EC50 (CHIKV (S27 strain); [4]): > 50 µM; CC50 (in vitro; CC50): > 50 µM |
| CCOc1ccccc1NC(=O)N(c1ccccc1)c1nc2c(s1)CCCC2 |  |  |  | EC50 (VEEV (TC83 strain); [3]): 10 µM; EC50 (CHIKV (S27 strain); [4]): 12.2 µM; CC50 (in vitro; CC50): > 50 µM |
| O=C(Cc1cccs1)Nc1nc2c(s1)CCCC2 [A] |  |  |  | Log titer reduction at 5 μM (LCMV-ARM): 0.085 log; Log titer reduction at 5 μM (Influenza virus A (H1N1)): 4.949 log; Log titer reduction at 5 μM [1]: 1.765 log; Log titer reduction at 5 μM (CHIKV S27): 0.61 log and 0.612 log |
| CN(C(=O)Cc1sccc1F)c1nc2c(s1)CCCC2 [B] |  |  |  | Log titer reduction at 5 μM (LCMV-ARM): 3.466 log; Log titer reduction at 5 μM (Influenza virus A (H1N1)): 4.949 log; Log titer reduction at 5 μM [1]: 4.768 log; Log titer reduction at 5 μM (YFV 17D): 2.32 log; Log titer reduction at 5 μM (CHIKV S27): 4.024 log |
| O=C(Cc1cccs1)N(c1ccccc1)c1nc2c(s1)CCCC2 [CB10002623] |  |  |  | GBP2 expression upregulation [2]: 3.5; IFI44 expression upregulation [2]: 2.83; IFIT1 expression upregulation [2]: 2.3; IRF9 expression upregulation [2]: 2.4; ISG20 expression upregulation [2]: 2.85; OASL expression fold increase [2]: 3.76 fold; expression of IFN-ε [2]: decreased in half; RIG-I expression fold increase ([2]; vs DMSO): 4.63 fold |
| Cc1csc(CC(=O)N(C)c2nc3c(s2)CCCC3)c1 [C] |  |  |  | Log titer reduction at 5 μM (LCMV-ARM): 3.014 log; Log titer reduction at 5 μM (Influenza virus A (H1N1)): 3.075 log; Log titer reduction at 5 μM [1]: 3.741 log; Log titer reduction at 5 μM (YFV 17D): 2.588 log; Log titer reduction at 5 μM (CHIKV S27): 3.62 log |
| COc1ccccc1CC(=O)N(C)c1nc2c(s1)CCCC2 [D] |  |  |  | Log titer reduction at 5 μM [1]: 2.716 log; Log titer reduction at 5 μM (CHIKV S27): 2.182 log |
| CCOc1ccccc1CC(=O)N(C)c1nc2c(s1)CCCC2 [E] |  |  |  | Log titer reduction at 5 μM [1]: 3.411 log; Log titer reduction at 5 μM (CHIKV S27): 3.161 log |
| O=C(Cc1cccs1)Nc1nc2c(s1)CCCC2 [Entry 1] | 5.1 | 4.9 | > 50 |  |
| CCOc1ccc(CC(=O)N(C)c2nc3c(s2)CCCC3)cc1 [Entry 8] | > 50 | > 50 | > 50 |  |
| COCc1ccccc1CC(=O)N(C)c1nc2c(s1)CCCC2 [Entry 9] | 9.1 | 9.3 | > 50 |  |
| Cc1ccccc1CC(=O)N(C)c1nc2c(s1)CCCC2 [Entry 10] | 1 | 3.6 | > 50 |  |
| Cc1cccc(CC(=O)N(C)c2nc3c(s2)CCCC3)c1 [Entry 11] | 1.3 | 2.8 | > 50 |  |
| Cc1ccc(CC(=O)N(C)c2nc3c(s2)CCCC3)cc1 [Entry 12] | 0.9 | 4.1 | > 50 |  |
| Cc1ccc(C)c(CC(=O)N(C)c2nc3c(s2)CCCC3)c1 [Entry 13] | 11.7 | 8.9 | > 50 |  |
| CCOc1ccccc1CC(=O)N(c1nc2c(s1)CCCC2)C(C)C [Entry 14] | 15.9 | > 50 | > 50 |  |
| CCOc1ccccc1CC(=O)N(c1nc2c(s1)CCCC2)C1CCOCC1 [Entry 15] | 12.5 | > 50 | > 50 |  |
| CCOc1ccccc1CC(=O)N(CCOC)c1nc2c(s1)CCCC2 [Entry 16] | 10.9 | 10.9 | > 50 |  |
| COc1ccccc1CC(=O)N(c1ccccc1)c1nc2c(s1)CCCC2 [Entry 17] | 0.7 | 0.5 | > 50 |  |
| O=C(Cc1ccccc1C(F)(F)F)N(c1ccccc1)c1nc2c(s1)CCCC2 [Entry 19] | 1.2 | 1.2 | > 50 |  |

| SMILES | EC50 (VEEV (TC83 strain); [5]) [µM] | EC50 (CHIKV (S27 strain); [6]) [µM] | CC50 (Vero 76 cells) [µM] | also measured |
| --- | --- | --- | --- | --- |
| CCOc1ccccc1CC(=O)N(c1nc2c(s1)CCCC2)c1ccccc1OC [Entry 20] | > 50 | > 50 | > 50 |  |
| CCOc1ccccc1CC(=O)N(c1cccc(OC)c1)c1nc2c(s1)CCCC2 [Entry 21] | 1.7 | 4.1 | > 50 |  |
| CCOc1ccccc1CC(=O)N(c1ccc(OC)cc1)c1nc2c(s1)CCCC2 [Entry 22] | 4.6 | > 50 | > 50 |  |
| CCOc1ccccc1CC(=O)N(c1nccs1)c1nc2c(s1)CCCC2 [Entry 23] | > 50 | > 50 | > 50 |  |
| CCOc1ccccc1CC(=O)N(c1cccnc1)c1nc2c(s1)CCCC2 [Entry 24] | 2.5 | 10.6 |  |  |
| O=C(Cc1ccccn1)N(c1ccccc1)c1nc2c(s1)CCCC2 [Entry 25] | > 50 | > 50 | 33.2 |  |
| O=C(Cc1ccco1)N(c1ccccc1)c1nc2c(s1)CCCC2 [Entry 26] | 6.8 | 8.2 | 25.8 |  |
| O=C(Cc1ccc(Br)s1)N(c1ccccc1)c1nc2c(s1)CCCC2 [Entry 27] | 0.02 | 0.05 | 17.2 |  |
| O=C(Cc1sccc1Br)N(c1ccccc1)c1nc2c(s1)CCCC2 [Entry 28] | 0.02 | 0.05 | 22.4 |  |
| Cc1ccc(CC(=O)N(c2ccccc2)c2nc3c(s2)CCCC3)s1 [Entry 29] | 0.03 | 0.11 | 7.8 |  |
| Cc1csc(CC(=O)N(C)c2nc3c(s2)CCCC3)c1 [Entry 30] | 0.02 | 0.09 | 36.4 |  |
| COc1csc(CC(=O)N(C)c2nc3c(s2)CCCC3)c1 [Entry 31] | 0.05 | 0.14 | 36.1 |  |
| CN(C(=O)Cc1cc(F)cs1)c1nc2c(s1)CCCC2 [Entry 32] | 5.1 | 10.2 | 22.5 |  |
| CN(C(=O)Cc1sccc1F)c1nc2c(s1)CCCC2 [Entry 33] |  |  |  | EC50 (VEEV (TC83 strain); Venezuelan equine encephalitis virus, read-out: VEEV (TC83 strain) CPE Assay Potency mean EC50): 0.4 µM; EC50 (CHIKV (S27 strain); Chikungunya virus, Tables 7-10, read-out: CHIKV (S27 strain) CPE Assay Potency mean EC50): 0.3 µM; CC50 (in vitro; VERO Cell Cytotoxicity Assay mean CC50): 41.4 µM |
| CN(C(=O)Cc1sccc1C(F)(F)F)c1nc2c(s1)CCCC2 [Entry 34] |  | > 50 | 6.4 |  |
| CN(C(=O)Cc1ccc(C(F)(F)F)s1)c1nc2c(s1)CCCC2 [Entry 35] | > 50 | > 50 | > 50 |  |
| COc1ccccc1CC(=O)N(c1ccccc1)c1nc2c(s1)CCCC2 [F] |  |  |  | Log titer reduction at 5 μM [1]: 3.198 log; Log titer reduction at 5 μM (CHIKV S27): 2.495 log |
| O=C(Cc1sccc1Br)N(c1ccccc1)c1nc2c(s1)CCCC2 [G] |  |  |  | Log titer reduction at 5 μM [1]: 4.754 log; Log titer reduction at 5 μM (CHIKV S27): 5.179 log |
| CC[C@@]1([C@@H]2O[C@@H]([C@H]3O[C@@](O)(CO)[C@H](C)C[C@@H]3C)C[C@@H]2C)CC[C@H]([C@]2(C)CC[C@]3(C[C@H](O)[C@@H](C)[C@@H]([C@@H](C)[C@@H](OC)[C@H](C)C(=O)O)O3)O2)O1 [Monensin, monensin, reference compound] |  |  |  | EC50 (pVSV-luc; Vesicular stomatitis virus, N2a, read-out: EC50 pVSV-Gp): 0.22 µM; EC50 (pVSV-luc; Vesicular stomatitis virus, read-out: EC50 values range): 0.17 to 0.56 µM; EC50 (pVSV-luc; read-out: EC50 pVSV-Gp): 0.19 µM; EC50 (VEEV V3526-luc; N2a, read-out: EC50 V3526-luc): 0.25 µM; EC50 (VEEV V3526-luc; NIH3T3, read-out: EC50 V3526-luc): 0.02 µM; EC50 (VEEV V3526-luc; Vero 76, read-out: EC50 V3526-luc): 3.87 µM; EC50 (VEEV V3526-luc; read-out: EC50 V3526-luc): 0.02 µM; EC50 (VEEV V3526-luc; read-out: EC50 values range): 0.02 to 0.25 µM |

Source: US20180086749A1, “INHIBITORS OF VIRUSES” (priority 2015, published 2018)
